This is an account of results in patent EP0891772A2, “Therapeutic agent for rheumatic disease comprising nonsteroidal anti-inflamatory drug and phenylpropionic acid derivative” (SANTEN PHARMACEUTICAL CO., LTD., priority 1997, dated 1999).

Assay [1] deals with type II collagen-induced arthritis. Description: type II collagen-induced arthritis model. Type of assay: in vivo, DBA/1 strain mouse. The conditions noted are these: for bone destruction score: 26th day after the secondary sensitization. Here is the method: A solution (4 mg/ml) of bovine joint cartilage type II collagen in diluted hydrochloric acid was mixed with Freund' s complete adjuvant of the same volume to prepare an emulsion. As a primary sensitization, this emulsion was injected intra-dermally into tail root site of DBA/1 strain mouse at a dose of 100 µl (corresponding to 200 µg of the type II collagen per mouse). After 21 days from the primary sensitization, 100 µl of this emulsion was injected intra-dermally into a tail root site of the mouse again (secondary sensitization). […] 5% carboxymethyl cellulose and a nonsteroidal anti-inflammatory drug was suspended in 1% methyl cellulose. With regard to the confirmation of onset of arthritis, the stage where swelling at the site of joint accompanied by erythema was defined as the onset of arthritis. With regard to degree of the arthritis, scoring was conducted for each paw according to the evaluating criterion for arthritis grade as mentioned below and the total point for four paws was used as an arthritic score. • 0: no change • 1: weak swelling and weak erythema were observed • 2: weak swelling and erythema were observed • 3: strong swelling and erythema were observed • 4: strong swelling and erythema accompanied by bone erosion were observed Then, on the 26th day after the secondary sensitization, X-ray photographs of the joints of four paws were taken.

In assay [2] the test system is hepatic allotransplantation. The conditions noted are these: rats; Surg. Today, 26, 419-426(1996); cited from earlier work.
In assay [3] the test system is adjuvant-induced arthritis. Description: adjuvant-induced arthritis model. The class given is in vivo, rat. Here is the method:
A suspension (0.6 mg/100 µl) of Mycobacterium butyricum (adjuvant) in liquid paraffin was injected subcutaneously into a left hind paw of rat (male; nine weeks age; body weight being about 240 grams) to induce arthritis.
Incidentally, as a control, a suspension not containing a test compound was administered by the same manner as above.

The mark [4] stands for this setting: diclofenac sodium alone 3 mg/kg, oral once a day.
Setting [5] is: present compound alone 100 mg/kg, oral once a day.

For the compound `O=C(O)Cc1ccccc1Nc1c(Cl)cccc1Cl` [diclofenac sodium, reference compound], in assay [1] (setting [4]), the arthritic score entry was “improvement in the arthritic score was recognized” and the “effect of delaying the onset of arthritis” value is listed as “no effect of delaying the onset of arthritis was recognized”. Also, in assay [1] (diclofenac sodium alone 3 mg/kg), the bone destruction score entry is reported as “a suppressive effect was recognized but the instant effect was far weaker than in the case of the combination administration”.

As to `COc1ccc(/C=C/CCCCOc2cccc(OCCCCC(=O)O)c2CCC(=O)O)cc1` [the present compound, 3-[1-[6-(4-methoxyphenyl)hex-5E-enyl]oxy-3-(4-carboxylbutyl)oxybenzen-2-yl]propionic acid], the “immunosuppressive action to hepatic allotransplantation” value in assay [2] was “shows an immunosuppressive action”. For the same compound, the arthritic score result is recorded as “improvement was recognized slightly” in assay [1] (setting [5]) and “Such a tendency was unchanged” in assay [1] (present compound alone 200 mg/kg, oral once a day, tendency = slight improvement as at 100 mg/kg). Also, the incidence of arthritis result in assay [1] (setting [5]) is reported as “nearly the same proceeding as in the control group”; in assay [1] (present compound alone 200 mg/kg, oral once a day, tendency = nearly as control, as at 100 mg/kg), “Such a tendency was unchanged”. Further, the results for the bone destruction score result in assay [1] (present compound alone 100 mg/kg) and in assay [1] (present compound alone 200 mg/kg) were “no suppressive effect was recognized at all” and “the suppressive effect was hardly recognized”, respectively. Also, the “pathohistological test: bone destruction, edema, etc.” value in assay [3] (present compound alone) is on record as “nearly no suppressive effect”. The “edema of left hindpaw (paw volume)” value in assay [3] (present compound alone 100 mg/kg, oral once a day from the 14th day after adjuvant) is listed as “nearly no suppressive effect on edema was recognized”.
